Assay [1] addresses T1, P2RY12 (Homo sapiens, UniProt Q9H244). Description: SPR (Biacore T200, His-captured purified P2RY12, steady-state affinity); antagonism of 2MesADP signalling in CHO-P2RY12 cells. The assay is classed as binding. In general terms: SPR reads the build-up and loss of mass on a sensor chip optically.
Assay [2] has as its target T1, P2RY12. The assay is described as follows: biochemical.

T1 sequence (Q9H244 whole entry, one chain of several): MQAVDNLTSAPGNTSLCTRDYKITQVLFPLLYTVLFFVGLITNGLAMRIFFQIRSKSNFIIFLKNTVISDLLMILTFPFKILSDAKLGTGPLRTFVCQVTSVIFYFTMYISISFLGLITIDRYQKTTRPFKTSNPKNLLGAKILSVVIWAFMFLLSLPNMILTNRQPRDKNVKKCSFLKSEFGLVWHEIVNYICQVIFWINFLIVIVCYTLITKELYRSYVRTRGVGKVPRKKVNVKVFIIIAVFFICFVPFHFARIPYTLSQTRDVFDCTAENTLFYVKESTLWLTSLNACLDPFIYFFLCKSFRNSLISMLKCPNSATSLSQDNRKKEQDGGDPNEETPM

The term Kd denotes the free concentration of one partner at which half of the binding sites on the other are occupied at equilibrium, for simple one-to-one binding. Read a low Kd as higher affinity. At P2RY12 [1], `CC(C)=CC/C=C(\C)[C@H]1CC[C@]2(C)[C@@H]1[C@H](O)C[C@@H]1[C@@]3(C)CC[C@H](O[C@@H]4O[C@H](CO)[C@@H](O)[C@H](O)[C@H]4O[C@@H]4O[C@H](CO)[C@@H](O)[C@H](O)[C@H]4O)C(C)(C)[C@@H]3CC[C@]12C` [Rg5, Ginsenoside Rg5] returned a Kd of 0.33 µM.

For `CCCSc1nc(N[C@@H]2C[C@H]2c2ccc(F)c(F)c2)c2nnn([C@@H]3C[C@H](OCCO)[C@@H](O)[C@H]3O)c2n1` [Ticagrelor], the Kd on P2RY12 [2] turned out to be 0.102 µM.

For the origin of these results see article PMC9411522, “Ginsenoside Rg5 allosterically interacts with P2RY12 and ameliorates deep venous thrombosis by counteracting neutrophil NETosis and inflammatory response” (Frontiers in Immunology, 2022).
